# Data published in PMC7179685, “Iminosugars With Endoplasmic Reticulum α-Glucosidase Inhibitor Activity Inhibit ZIKV Replication and Reverse Cytopathogenicity in vitro” (Frontiers in Microbiology, 2020).
# Tests used:
# [1] = system: CHME3 cells; experiment: Cytotoxicity, MTS cell viability assay in CHME3 cells; format: cell-based, Human; details: 72 h post treatment
# Description: (§1) A cell viability assay was used to evaluate both the cytotoxicity and antiviral abilities of the iminosugars with appropriate controls as previously described ([Fletcher et al., 2000]) using the CellTiter 96® AQueous One Solution Cell Proliferation Assay (MTS, Promega, Madison, WI, United States) following the manufacturer’s instructions. At 60–70% confluence, Vero cells and CHME3 cells were pretreated with iminosugars for 2 h and then infected with ZIKV according to the plate layout shown in Supplementary Figure S1. Four biological replicates were used to assess cytotoxicity, and six replicates were used to assess the antiviral ability of each iminosugar with concentrations ranging from 0.01 to 1000 μM or vehicle (sterile nuclease-free water). Cells treated with iminosugars or vehicle control were infected with ZIKV strain PRVABC59, IBH30656 or MEX 2-81 at a multiplicity of infection (MOI) of 1 in infection medium consisting of DMEM supplemented with 5% FBS and 1% antibiotic/antimycotic solution. The CHME3 infection medium was additionally supplemented with 0.1% non-essential amino acids (NEAA). At 72 h post-infection (hpi), MTS solution was added to the wells, and after 2 h, the optical density was measured at 490 nm using a microplate reader (ELx800; BioTek, Winooski, VT, United States). Previous studies have shown that ER α-glucosidase inhibitor, Celgosivir prevents DENV secretion in primary human macrophages with an EC50 of 5 μM and has CC50 greater than 1000 μM in MBDK cells ([Whitby et al., 2004]; [Sung et al., 2016]).
# [2] = system: ZIKV PRVABC59; experiment: Virus yield reduction assay (qRT-PCR and TCID50) in Vero cells; format: cell-based, Zika virus; details: 1 μM, 48 hpi
# Description: (§2) Zika virus yield reduction following treatment with iminosugars was assessed by measuring the NS1 gene by a previously described quantitative reverse transcription-polymerase chain reaction (qRT-PCR) and infectious virus titration in Vero cells ([Reed and Muench, 1938]; [Goebel et al., 2016]). Vero and CHME3 cells pre-treated 1 μM of castanospermine, celgosivir or DNJ for 2 h and then were infected with PRVABC59 either at MOI 0.5 or 5 in infection medium. After 2 h of incubation with the virus, medium from cells was removed, cells were washed with phosphate buffered saline, and fresh infection medium containing 1 μM of castanospermine, celgosivir or DNJ was added to the wells. At 48 and 72 hpi, culture supernatants were harvested and stored at −80°C until use for viral RNA extraction. Viral RNA was extracted from 50 μl of sample using the MagMAX-96 Viral RNA Isolation Kit (Applied Biosystems, Foster City, CA, United States) on a MagMAX Express-96 Deep Well Magnetic Particle Processor (Applied Biosystems). The amount of ZIKV genomic RNA was measured by qRT-PCR using SuperScript® III Platinum One-Step qRT-PCR Kit on a 7500 Fast Real-Time PCR System (Applied Biosystems). The primers (F: 5′-[…]-3′, R: 5′-[…]-3′) and probe sequence (5′- FAM-TGCCCAACA/ZEN/CAAGGTGAAGCC TACCT-BHQ) were purchased from Integrated DNA Technologies (IDT; Coralville, IA, United States), and the qRT-PCR cycling conditions included an initial cDNA synthesis for 30 min at 50°C, followed by 2 min at 95°C and 45 cycles of 2-step cycling at 95°C for 15 s, then 55°C for 30 s ([Goebel et al., 2016]). The ZIKV copy numbers were quantified using a standard curve generated with serial dilutions of positive control ZIKV RNA standards derived from ZIKV with known TCID50 value. Cell culture supernatants were titrated for the infectious virus in Vero cells, and titer was expressed as TCID50 calculated using the Reed-Muench method ([Reed and Muench, 1938]).
# [3] = system: ZIKV PRVABC59; experiment: Virus yield reduction assay (qRT-PCR and TCID50) in CHME3 cells; format: cell-based, Zika virus; details: 1 μM, 48 hpi
# Description: as §2
# [4] = system: ZIKV strain PRVABC59; experiment: Antiviral screening assay (MTS cell viability after infection) in Vero cells; format: cell-based, Zika virus
# Description: as §1
# [5] = system: ZIKV strain PRVABC59; experiment: Antiviral screening assay (MTS cell viability after infection) in CHME3 cells; format: cell-based, Zika virus
# Description: as §1
# [6] = system: activated caspases 3 and 7; experiment: Measurement of apoptosis, Caspase-Glo 3/7 assay in ZIKV-infected CHME3 cells; format: cell-based, Human; details: PRVABC59, MOI 1, 0.01 to 1000 μM, 48 and 72 hpi
# Description: Apoptotic cell death was evaluated by measuring the levels of active caspase 3 and 7 in cells using the Caspase-Glo® 3/7 Assay (Promega) following the manufacturer’s instructions. CHME3 cells in 96-well white-walled cell culture plates (Greiner Bio-One, Kremsmünster, Austria) were pre-treated with celgosivir for 2 h and then infected with PRVABC59 at MOI 1 in the presence of celgosivir at concentrations ranging from 0.01 to 1000 μM or vehicle. Controls for media color, cells, and virus were included. At 48 and 72 hpi, Caspase-Glo® Reagent was added, and after 30 min the luminescence of each sample was read five times using a Spark multimode microplate reader (TECAN, Männedorf, Switzerland) at an interval of 2 min for 15 s. The average of the five readings was used as the measurement for each biological replicate.
# [7] = system: DENV; parameters: method as in Whitby et al., 2004; Sung et al., 2016; details: primary human macrophages; ref Whitby et al., 2004; Sung et al., 2016; read-out: EC50, prevention of DENV secretion; cited from earlier work
# [8] = system: MBDK cells; parameters: method as in Whitby et al., 2004; Sung et al., 2016; details: ref Whitby et al., 2004, Sung et al., 2016; cited from earlier work
# [9] = system: dengue virus (DENV); parameters: method as in Rathore et al., 2011; details: BHK-21 cells; MOI 0.3; ref Rathore et al., 2011; cited from earlier work
smiles,measurement,setting,value
"CCCC(=O)O[C@H]1CN2CC[C@H](O)[C@@H]2[C@@H](O)[C@@H]1O [celgosivir, 6-O-butanoyl castanospermine]","metabolic activity (cytotoxicity, MTS)",[1]; 1000 μM,decrease in metabolic activity
same,"metabolic activity compared to vehicle control (cytotoxicity, MTS)",[1]; 0.01 to 100 μM,No reduction in metabolic activity
same,PRVABC59 ZIKV RNA in supernatant compared with vehicle control (qRT-PCR),"[2]; MOI 0.5 and MOI 5, p ≤ 0.0318",Significant reductions
same,infectious PRVABC59 ZIKV titers (TCID50),"[2]; MOI 0.5 and MOI 5, p ≤ 0.0433",statistically significant reduction
same,infectious PRVABC59 ZIKV titers (TCID50),[3]; MOI 0.5,statistically significant reduction
same,infectious PRVABC59 ZIKV titers (TCID50),"[3]; MOI 5, p ≤ 0.0433",statistically significant reduction
same,ZIKV-induced cell death (MTS),"[4]; Vero cells, PRVABC59, MOI 1, 72 hpi",reduce ZIKV-induced cell death
same,viability at 0.01 µM,"[4]; Zika virus, Vero, read-out: cell viability following ZIKV infection",> 90%
same,ZIKV-induced cell death (MTS),"[5]; CHME3 cells, PRVABC59, MOI 1, 72 hpi",reduce ZIKV-induced cell death
same,viability at 0.01 µM,"[5]; Zika virus, read-out: cell viability following ZIKV infection",> 90%
same,levels of activated caspases 3 and 7 in comparison to untreated infected cells,[6],did not significantly reduce
same,EC50,[7],5 µM
same,CC50,[8],> 1000 µM
same,effectiveness against DENV relative to castanospermine,[9],100 times
